These results are taken from patent EP3046573B1, “AMYLIN ANALOGUES” (Zealand Pharma A/S, priority 2013, dated 2015).

Data set [1] addresses T1, human calcitonin receptor (hCTR2) (Homo sapiens, UniProt P30988).
T1 construct: expressed in transfected cells
T1 sequence (P30988 25-474): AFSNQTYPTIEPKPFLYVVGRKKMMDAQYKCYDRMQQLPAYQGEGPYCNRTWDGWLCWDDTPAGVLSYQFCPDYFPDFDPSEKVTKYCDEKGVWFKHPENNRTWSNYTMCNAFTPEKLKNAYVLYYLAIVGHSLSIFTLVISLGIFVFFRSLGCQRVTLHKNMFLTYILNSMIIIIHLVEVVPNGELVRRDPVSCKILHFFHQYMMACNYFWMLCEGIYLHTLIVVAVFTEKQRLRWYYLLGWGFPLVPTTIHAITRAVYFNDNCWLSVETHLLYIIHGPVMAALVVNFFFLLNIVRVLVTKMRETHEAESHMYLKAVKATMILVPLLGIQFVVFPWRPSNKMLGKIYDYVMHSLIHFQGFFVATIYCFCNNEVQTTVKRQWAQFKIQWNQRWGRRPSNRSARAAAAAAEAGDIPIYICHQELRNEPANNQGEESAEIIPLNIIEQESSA
Nature of the data set: hCTR2 assay: induction of cAMP (AlphaScreen cAMP Assay kit) in COS7 cells expressing hCTR2. The data set is classed as cell-based. In outline:
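Stable hCTR2 clone in RAMP-naive COS7 cells; peptides titrated in Tyrode buffer (pH 7.4) with 100 µM IBMX, 0.1% casein, 15 min at 37° C. cAMP read by AlphaScreen after lysis; EC50 and efficacy relative to pramlintide from 4PL fit.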
On the technique in general: In Alpha technology, singlet oxygen from a donor bead excites a nearby acceptor bead.

Data set [2] can be described thus: Solubility assessment (turbidity absorbance at 325 nm). The class given is physicochemical. The conditions noted are these: stock 2 mg/ml diluted 1:1, ambient temperature (typically 25°C), n=1; for Solubility, Acetate buffer pH 4: 100 mM acetate buffer pH 4.0; for Solubility, Acetate buffer pH 5: 100 mM acetate buffer pH 5.0; for Solubility, Histidine buffer pH 6: 100 mM histidine buffer pH 6.0; for Solubility, Histidine buffer pH 7: 100 mM histidine buffer pH 7.0; for Solubility, Phosphate buffer pH 6: 100 mM phosphate buffer pH 6.0; for Solubility, Phosphate buffer pH 7: 100 mM phosphate buffer pH 7.0; for Solubility, Phosphate buffer pH 7.5: 100 mM phosphate buffer pH7.5. The essentials:
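Peptide stock (2 mg/ml, water pH 2.5) diluted 1:1 into 100 mM acetate (pH 4.0, 5.0), histidine (pH 6.0, 7.0) or phosphate (pH 6.0–7.5) buffer; absorbance at 325 nm read at about 25°C, n=1. A325 ≤ 0.02 taken as solubility ≥ 1 mg/ml.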

Where [3] appears, read: cAMP induction in COS7 cells expressing hCTR2, average of a minimum of 3 determinations, read-out: hCTR2 EC50.

SMILES strings stand for the structures. Like-named read-outs stand apart in the source and are kept apart here. Numbered stars: 1 amine (or outer) side, 2 acyl side, 3 side chain; on linkers, the order of the positions; unused ones are H or OH. Bridge positions count the residues as written; N and C are the ends. Square brackets hold non-standard residues; d marks the D form. Peptide text beside a SMILES is read from it. * marks the point of attachment. C20 diacid = O=C(O)CCCCCCCCCCCCCCCCCCC(=O)*; γGlu = O=C(O)[C@H](CCC(=O)[*:2])N[*:1]; NMeI = CC[C@H](C)[C@H](NC)C(=O)O; Sar = CNCC(=O)O

Broadly, the EC50 is the concentration at which the effect is half-maximal. `CC[C@H](C)[C@@H](C(=O)N[C@@H](CC(C)C)C(=O)N[C@@H](CO)C(=O)N[C@@H](CO)C(=O)N[C@H](C(=O)N[C@@H](CC(N)=O)C(=O)N[C@H](C(=O)NCC(=O)N[C@@H](CO)C(=O)N[C@@H](CC(N)=O)C(=O)N[C@H](C(=O)N1CCC[C@H]1C(N)=O)[C@@H](C)O)C(C)C)[C@@H](C)O)N(C)C(=O)CN(C)C(=O)[C@H](Cc1ccccc1)NC(=O)[C@H](CC(N)=O)NC(=O)[C@H](CC(N)=O)NC(=O)[C@H](CO)NC(=O)[C@H](CO)NC(=O)[C@H](CCCNC(=N)N)NC(=O)[C@H](Cc1c[nH]cn1)NC(=O)[C@H](CC(C)C)NC(=O)[C@H](Cc1ccccc1)NC(=O)[C@H](CCC(=O)O)NC(=O)[C@H](C)NC(=O)[C@H](CC(C)C)NC(=O)[C@H](CCCNC(=N)N)NC(=O)[C@H](CCC(N)=O)NC(=O)[C@@H](NC(=O)[C@H](C)NC(=O)[C@@H]1CSSC[C@H](NC(=O)[C@H](CCCCN)NC(=O)CC[C@H](NC(=O)CCCCCCCCCCCCCCCCCCC(=O)O)C(=O)O)C(=O)N[C@@H](CC(N)=O)C(=O)N[C@@H]([C@@H](C)O)C(=O)N[C@@H](C)C(=O)N[C@@H]([C@@H](C)O)C(=O)N1)[C@@H](C)O` [Compound 58, [19CD]-isoGlu-KC()NTATC()ATQRLAEFLHRSSNNF-Gly(Me)-Ile(Me)-LSSTNVGSNTP-NH2] ({C20 diacid-γGlu}-KCNTATCATQRLAEFLHRSSNNF[Sar][NMeI]LSSTNVGSNTP-NH2; disulfide 2-7): in data set [1] (setting [3]), the EC50 is 0.11 nM. Moreover, in data set [2], the “Solubility, Acetate buffer pH 4” value is “SS (SS indicates solubility ≥ 1mg/ml)”; the “Solubility, Acetate buffer pH 5” value is reported as “SS (SS indicates solubility ≥ 1mg/ml)”; the “Solubility, Histidine buffer pH 6” value is “SS (SS indicates solubility ≥ 1mg/ml)”; the “Solubility, Histidine buffer pH 7” value is “SS (SS indicates solubility ≥ 1mg/ml)”. Also, in data set [2], the “Solubility, Phosphate buffer pH 6” value is given as “SS (SS indicates solubility ≥ 1mg/ml)”; the “Solubility, Phosphate buffer pH 7” value is listed as “II (II indicates solubility ≤ 1 mg/ml)”; the “Solubility, Phosphate buffer pH 7.5” value is recorded as “SS (SS indicates solubility ≥ 1mg/ml)”.
For the compound `CC[C@H](C)[C@@H](C(=O)N[C@@H](CC(C)C)C(=O)N[C@H](CO)C(=O)N[C@@H](CO)C(=O)N[C@H](C(=O)N[C@@H](CC(N)=O)C(=O)N[C@H](C(=O)NCC(=O)N[C@@H](CO)C(=O)N[C@@H](CC(N)=O)C(=O)N[C@H](C(=O)N1CCC[C@H]1C(N)=O)[C@@H](C)O)C(C)C)[C@@H](C)O)N(C)C(=O)[C@H](C)NC(=O)CN(C)C(=O)[C@@H](Cc1ccccc1)NC(=O)[C@H](CC(N)=O)NC(=O)[C@H](CC(N)=O)NC(=O)[C@H](CO)NC(=O)[C@H](CO)NC(=O)[C@H](Cc1c[nH]cn1)NC(=O)[C@H](Cc1c[nH]cn1)NC(=O)[C@H](CC(C)C)NC(=O)[C@H](Cc1ccccc1)NC(=O)[C@H](CCC(=O)O)NC(=O)[C@H](C)NC(=O)[C@H](CC(C)C)NC(=O)[C@H](CCCNC(=N)N)NC(=O)[C@H](CCC(N)=O)NC(=O)[C@@H](NC(=O)[C@H](C)NC(=O)[C@@H]1CSSC[C@H](NC(=O)[C@H](CCCNC(=N)N)NC(=O)CC[C@H](NC(=O)CCCCCCCCCCCCCCCCCCC(=O)O)C(=O)O)C(=O)N[C@@H](CC(N)=O)C(=O)N[C@@H]([C@@H](C)O)C(=O)N[C@@H](C)C(=O)N[C@@H]([C@@H](C)O)C(=O)N1)[C@@H](C)O` [Compound 59, [19CD]-isoGlu-RC()NTATC()ATQRLAEFLHHSSNN-DPhe-Gly(Me)-A-Ile(Me)-L-DSer-STNVGSNTP-NH2] ({C20 diacid-γGlu}-RCNTATCATQRLAEFLHHSSNN[dF][Sar]A[NMeI]L[dS]STNVGSNTP-NH2; disulfide 2-7), in data set [1], the EC50 was 0.14 nM. Also, in data set [2], the “Solubility, Acetate buffer pH 4” value is “SS (SS indicates solubility ≥ 1mg/ml)”; the “Solubility, Acetate buffer pH 5” value is given as “SS (SS indicates solubility ≥ 1mg/ml)”; the “Solubility, Histidine buffer pH 6” value is “SS (SS indicates solubility ≥ 1mg/ml)”; the “Solubility, Histidine buffer pH 7” value is reported as “SS (SS indicates solubility ≥ 1mg/ml)”. Also, in data set [2], the “Solubility, Phosphate buffer pH 6” value is on record as “SS (SS indicates solubility ≥ 1mg/ml)”; the “Solubility, Phosphate buffer pH 7” value is listed as “II (II indicates solubility ≤ 1 mg/ml)”; the “Solubility, Phosphate buffer pH 7.5” value is reported as “SS (SS indicates solubility ≥ 1mg/ml)”.
In the case of `CC[C@H](C)[C@@H](C(=O)N[C@@H](CC(C)C)C(=O)N[C@H](CO)C(=O)N[C@@H](CO)C(=O)N[C@H](C(=O)N[C@@H](CC(N)=O)C(=O)N[C@H](C(=O)NCC(=O)N[C@@H](CO)C(=O)N[C@@H](CC(N)=O)C(=O)N[C@H](C(=O)N1CCC[C@H]1C(N)=O)[C@@H](C)O)C(C)C)[C@@H](C)O)N(C)C(=O)CN(C)C(=O)[C@@H](Cc1ccccc1)NC(=O)[C@H](CC(N)=O)NC(=O)[C@H](CC(N)=O)NC(=O)[C@H](CO)NC(=O)[C@H](CO)NC(=O)[C@H](Cc1c[nH]cn1)NC(=O)[C@H](Cc1c[nH]cn1)NC(=O)[C@H](CC(C)C)NC(=O)[C@H](Cc1ccccc1)NC(=O)[C@H](CCC(=O)O)NC(=O)[C@H](C)NC(=O)[C@H](CC(C)C)NC(=O)[C@H](CCCNC(=N)N)NC(=O)[C@H](CCC(N)=O)NC(=O)[C@@H](NC(=O)[C@H](C)NC(=O)[C@@H]1CSSC[C@H](NC(=O)[C@H](CCCNC(=N)N)NC(=O)CC[C@H](NC(=O)CCCCCCCCCCCCCCCCCCC(=O)O)C(=O)O)C(=O)N[C@@H](CC(N)=O)C(=O)N[C@@H]([C@@H](C)O)C(=O)N[C@@H](C)C(=O)N[C@@H]([C@@H](C)O)C(=O)N1)[C@@H](C)O` [Compound 60, [19CD]-isoGlu-RC()NTATC()ATQRLAEFLHHSSNN-DPhe-Gly(Me)-Ile(Me)-L-DSer-STNVGSNTP-NH2] ({C20 diacid-γGlu}-RCNTATCATQRLAEFLHHSSNN[dF][Sar][NMeI]L[dS]STNVGSNTP-NH2; disulfide 2-7), the EC50 in data set [1] (setting [3]) came out at 0.12 nM. Further, in data set [2], the “Solubility, Acetate buffer pH 4” value was “SS (SS indicates solubility ≥ 1mg/ml)”; the “Solubility, Acetate buffer pH 5” value is “SS (SS indicates solubility ≥ 1mg/ml)”; the “Solubility, Histidine buffer pH 6” value is “SS (SS indicates solubility ≥ 1mg/ml)”; the “Solubility, Histidine buffer pH 7” value is given as “SS (SS indicates solubility ≥ 1mg/ml)”. In data set [2], the “Solubility, Phosphate buffer pH 6” value is reported as “SS (SS indicates solubility ≥ 1mg/ml)”; the “Solubility, Phosphate buffer pH 7” value was “II (II indicates solubility ≤ 1 mg/ml)”; the “Solubility, Phosphate buffer pH 7.5” value is “SS (SS indicates solubility ≥ 1mg/ml)”.
